Test results taken from patent US20250304526A1, “HIGH AND MULTIPLE REDOX POTENTIAL, STABLE, AND SOLUBLE BIS-DIARYLAMINE DERIVATIVES AND USES THEREOF” (University of Kentucky Research Foundation, priority 2024, published 2025).
In brackets after ≈: the same amount, converted by molar mass. Read-outs that look alike come from different tables or passages of the source.

Experiments:
Format in all cases: physicochemical
[1] = Cyclic voltammetry (redox potentials, diffusion coefficients); settings: 1 mM in 0.2M TBAPF6/CH3CN; for D (diffusion coefficient): Randles-Sevcik equation
[2] = Solubility determination in pure acetonitrile by mass measurement
Description: The solubility of the compounds in pure acetonitrile was determined by the mass measurement method described previously. Saturated solutions of each compound were prepared and filtered to remove any undissolved material. Afterwards, 3 mL of each solution were taken and added to previously weighed vials (the measurement was repeated three times for each solution, i.e. 3 vials for each solution). The vials were then stored open in a nitrogen-filled glove box to allow the slow evaporation of the solvent. After 10 days, acetonitrile was evaporated from all vials, leaving only the previously dissolved solid. The vials were then re-weighed and the mass of the solid was determined by subtracting the mass of the respective empty vial. The concentration of the compound was calculated from the mass of the dissolved solid and the volume of the sample placed into the vial.
The solubilities of 1-4 were examined in pure CH3CN using the mass measurement method.

[3] = UV-NIR spectroscopy of radical cations (IVCT band, Hush analysis); settings: for ν1/2, Hush (Hush-theory predicted band width): predicted from νmax at 298 K; for ν1/2 (measured IVCT band width) / νmax (IVCT band): radical cation, 0.5 mM in pure CH3CN
Description: In an argon-filled glove box, 0.5 mM solutions of neutral and radical cation were prepared in acetonitrile and pipetted into 1 mm path length optical glass cuvettes. The choice of this path length of cuvette is dictated by the aim to prevent the UV-vis detector saturation of the intensely colored cationic species. All samples destined to UV-vis stability monitoring contained 0.1 M TBAPF6 whereas UV-NIR samples were in pure CH3CN. Solutions were added to the cuvettes inside an argon filled glovebox, sealed with a Teflon screw cap and removed from the glovebox for spectral analysis. UV-vis spectra were collected in an Agilent 8453 diode-array spectrometer. Spectra were collected at 0, 1, 3, 4, 5, 6 and 24 h after dissolution.
The synthesized cations were also characterized using UV-NIR spectroscopy (FIG. 3). From FIG. 3 it can be clearly seen that the spectra of the charged forms change dramatically as compared to the neutral forms. […] These values match perfectly to those reported by Lambert and Noll for the same molecules using spectroelectrochemistry in 0.1 M TBAPF6 in dichloromethane.^21
Class II or III assignment is based on electronic spectroscopy; the broadness and line shape of the IVCT transition is analyzed in this case. Analysis of the line broadness and line shape of the IVCT band is also used to determine whether a mixed-valence species belongs to Class II or III. Hush theory provides a relationship that simplifies at 298 K to:
where vmax is the maximum absorption of the IVCT band given in […].

[4] = Galvanostatic bulk electrolysis (BE) cycling in H-cell; settings: for Cyclic voltammograms before and after BE (decomposition check): 0.1M TBAPF6/CH3CN, scan rate 0.2 V·s^−1
Description: BE experiments were performed in custom-made H-cells. The H-cell has two electrolyte chambers separated by an ultra-fine porous glass frit (P5, Adams and Chittenden) which prevents the mixing of the electrolytes. Two homemade reticulated vitreous carbon (45 PPI, Duocel®) electrodes, placed in both chambers separately served as the working and counter electrodes. A non-aqueous Ag/Ag^+ (silver wire immersed in CH3CN containing 0.1 M TBABF4 and 0.01 M AgBF4) electrodes was used as a reference electrode and was placed next to the working electrode in the same chamber. In addition, a 3 mm-glassy carbon electrode (CH Instruments, Inc.) was attached to the working electrode chamber to record CVs before and after bulk electrolysis experiments. In each of the working and the counter electrode chambers, 3.5 mL of electrolyte containing a given concentration of the neutral active species and 0.1 M TBAPF6/CH3CN were added to both the working and the counter electrode chambers for charge-discharge cycling. The voltage cut-offs were determined by recording a CV in the working electrode side prior to the start of the bulk electrolysis experiment. The values of the cut-off voltage were set by adding 0.3 V to the calculated half-way oxidation potential determined by CV. Both the working and the counter electrode chambers were stirred throughout the bulk electrolysis experiments at a stirring speed of 900 rpm to maintain mass transfer during charging and discharging. The experiment was conducted at variable C-rates, starting with 3 C then 2 C and finally 1 C with 8 cycles run at each C-rate. The galvanostatic control and data acquisition were achieved by incorporating a BioLogic VSP potentiostat.
Galvanostatic bulk electrolysis (BE) cycling was performed to monitor the charged species self-discharge by following the coulombic efficiency (CE). BE is particularly interesting because it provides deeper insights on the electrochemical stability of the electroactive compounds upon continuous galvanostatic cycling. More information about this technique is provided in the supplementary information. Essentially, if trace impurities existing in the electrolyte trigger self-discharge of the charged species, a relatively large portion of oxidized species will switch to its uncharged form if the concentration of active species is low. However, at elevated concentrations, the relative concentration of impurities with respect to active species will be considerably lower and their effect will be minimized. In other words, higher CEs are expected when the active species concentration is larger.
CE is calculated by dividing the amount of charge passed during discharging (Qdischarge) by the amount of charge passed during charging (Qcharge). A considerably lower than 99% CE indicates instability and decomposition of active material via parasitic processes. It is known that CE is affected by the C-rate at which the battery is charged/discharged. Higher C-rates usually yield higher CEs due to the fact that less time is given for unwanted parasitic processes to consume the charged species, unlike in slow C-rates where such processes are allowed to consume charge leading to lower CEs.
BE cycling was performed at three different C-rates 3 C, 2 C, and 1 C with eight charge/discharge cycles at each C-rate. At slower charge-discharge rates, the accessed capacities were higher. This is expected due to the increase in the cell polarization at faster cycling rates.

[5] = organic solvent or mixture, thermodynamic from solid, read-out: Solubility

E^o′1 (first redox potential) [1] [V vs Cp2Fe^0/+]	E^o′2 (second redox potential) [1] [V vs Cp2Fe^0/+]	ΔE (E^o′2 − E^o′1) [1]	D (diffusion coefficient) [1]	solubility [2, 5] [mM]	ν1/2, Hush (Hush-theory predicted band width) [3] [cm⁻¹]	ν1/2 (measured IVCT band width) [3] [cm⁻¹]	νmax (IVCT band) [3] [cm⁻¹]	Cyclic voltammograms before and after BE (decomposition check) [4]	Capacity retention during BE ([4]; all C-rates (3 C, 2 C, 1 C))	solubility [2] [mM]	νmax (IVCT band) ([3]; listed as 1^⋅) [cm⁻¹]	Capacity retention during BE ([4]; after 8 cycles at 1 C) [%]	Capacity retention during BE ([4]; after 8 cycles at 2 C) [%]	Capacity retention during BE ([4]; after 8 cycles at 3 C) [%]	SMILES
0.17	0.33	0.16	1.81 10^−6 cm^2 · s^−1	3.5 (≈ 2130 µg/mL)	4740	3524	9728	identical CVs	good capacity retention						COc1ccc(N(c2ccc(OC)cc2)c2ccc(-c3ccc(N(c4ccc(OC)cc4)c4ccc(OC)cc4)cc3)cc2)cc1 [2^+⋅]
0.00	0.38	0.38	4.49 10^−6 cm^2 · s^−1	9 (≈ 4790 µg/mL)	4756	3846	9790	nearly identical	~99%	8.76 (≈ 4670 µg/mL)	~10000				COc1ccc(N(c2ccc(OC)cc2)c2ccc(N(c3ccc(OC)cc3)c3ccc(OC)cc3)cc2)cc1 [1^+⋅]
0.41	0.91	0.50	7.67 10^−6 cm^2 · s^−1	13 (≈ 9630 µg/mL)	5448	4018	12849	nearly identical features		13.34 (≈ 9880 µg/mL)		94	97	99	Cc1ccc(C(F)(F)F)cc1N(c1ccc(N(c2cc(C(F)(F)F)ccc2C)c2cc(C(F)(F)F)ccc2C)cc1)c1cc(C(F)(F)F)ccc1C [3^+⋅]
0.53	0.69	0.16	1.54 10^−6 cm^2 · s^−1	13 (≈ 10600 µg/mL)	4362	2519	8238	substantial decrease in the peak heights	remarkable capacity decay						Cc1ccc(C(F)(F)F)cc1N(c1ccc(-c2ccc(N(c3cc(C(F)(F)F)ccc3C)c3cc(C(F)(F)F)ccc3C)cc2)cc1)c1cc(C(F)(F)F)ccc1C [4^+⋅]
